# From PMC10098121, “Amphipathic barbiturates as marine product mimics with cytolytic and immunogenic effects on head and neck squamous cell carcinoma cell lines” (Frontiers in Pharmacology, 2023)
# Key:
# Assay type in all cases: cell-based, human
# HSC-3 cells = experiment: Flow cytometric detection of apoptosis (Annexin V/PI); conditions: HSC-3, 24 h; cisplatin 50 µM, MPMs 5-20 µM
# Procedure: HSC-3 and UT-SCC-24A cells were seeded, 300,000 cells/well, in 6-well plates and left to adhere overnight. The media was then removed and replaced by 2 ml complete DMEM/F-12 containing 5, 7.5, 10 or 20 µM of MPM-2:0, MPM-6:0, MPM-3:2 or MPM-4:2, or 50 µM cisplatin. Some cells were left untreated. The cells were then incubated for 24 h. Next, the cell supernatants were collected before the cells were trypsinized and spun down with the supernatants. For the staining, an apoptosis detection kit was used (#88-8005-74, Thermo Fisher Scientific). The cells were washed once in PBS and once in 1x binding buffer before being incubated with FITC labeled Annexin V diluted 1:25 in 1 × binding buffer for 15 min. Next the cells were washed in 1 × binding buffer before being incubated with PI diluted 1:100 in 1 × binding buffer for at least 5 min before analysis was performed on the LSR Fortessa (BD Biosciences, CA, United States). Analyses were performed in FlowJo™ v.10 (https://www.flowjo.com/).
# [1] = tested on: phosphorylated eIF2α in HSC-3 cells; experiment: Western blot for phosphorylated eIF2α; conditions: HSC-3, 24 h; cisplatin 50 µM, MPMs 5-20 µM
# Procedure: (§1) HSC-3 and UT-SCC-24A cells were seeded, 300,000 cells/well, in 6-well plates and left to adhere overnight. The media was then removed and replaced by 2 ml complete DMEM/F-12 containing 5, 7.5, 10 or 20 µM of MPM-2:0, MPM-6:0, MPM-3:2 or MPM-4:2, or 50 µM cisplatin. Some cells were left untreated. The cells were then incubated for 24 h. Next, the cell supernatants were collected before the cells were trypsinized and spun down with the supernatants. The cells were then washed twice in ice-cold PBS before being resuspended in 100 µl RIPA buffer (25 mM Tris-HCl (pH 7,6), 150 mM NaCl, 0.1% SDS, 0.5% sodium deoxycholate, 1% Triton X-100) containing 1% protease inhibitor (SIGMAFASTTM, #S8830, Sigma-Aldrich) and incubated on a shaker for 30 min. Next, the samples were sonicated and then kept at −70°C before being used. The samples were kept on ice or at 4°C during the whole procedure. The samples were thawed on ice and the protein concentration was measured using the DC Protein Assay kit (#5000111, Bio-Rad Laboratories, Hercules, CA, United States). 8 μg of protein was taken from each sample and mixed with DTT (final concentration 50 mM) and 20% 5 × sample buffer (250 mM Tris-HCl pH 6.8, 10% SDS, 20% Glycerol, 0.01% Bromphenol Blue). […]
# [2] = tested on: phosphorylated eIF2α in UT-SCC-24A cells; experiment: Western blot for phosphorylated eIF2α; conditions: 24 h, cisplatin 50 µM, MPMs 5-20 µM
# Procedure: as §1
# [3] = tested on: cell surface calreticulin on HSC-3 cells; experiment: Flow cytometric detection of cell surface calreticulin; conditions: HSC-3, 24 h; cisplatin 50 µM, MPMs 5-20 µM; vs untreated
# Procedure: This procedure was based on a published method ([Liu et al., 2020]), but was performed with some modifications. Briefly, HSC-3 and UT-SCC-24A cells were seeded, 300,000 cells/well, in 6-well plates and left to adhere overnight. The media was then removed and replaced by 2 ml complete DMEM/F-12 containing 5, 7.5, 10 or 20 µM of MPM-2:0, MPM-6:0, MPM-3:2 or MPM-4:2, or 50 µM cisplatin. Some cells were left untreated. The cells were then incubated for 24 h. Next, the cell supernatants were collected before the cells were trypsinized and spun down with the supernatants. The cells were then washed in PBS before being incubated with the viability dye Zombie Violet (#423114, BioLegend, San Diego, CA, United States) diluted 1:500 in PBS for 20 min. Next, the cells were incubated with an anti-calreticulin antibody (#ab2907, Abcam) diluted 1:100 in FACS buffer (2%BSA in PBS) for 30 min. The cells were then fixed in 4% formaldehyde for 15 min and washed twice in FACS buffer before being incubated with the secondary antibody (#A11034, Thermo Fisher Scientific) diluted 1:250 in FACS buffer for 30 min. The cells were washed in FACS buffer and analyzed on a LSR Fortessa (BD Biosciences) within 1 week. Analyses were performed in FlowJo™ v.10 (https://www.flowjo.com/).
smiles,measurement,setting,value
"N.N.[Cl][Pt][Cl] [Cisplatin, cisplatin, reference compound]",apoptotic (Annexin V+/PI−) population (in words),HSC-3 cells,"small, but clearly apoptotic (Annexin V+/PI−) population"
same,phosphorylation of eIF2α (in words),[1],induced high levels of phosphorylated eIF2α
same,phosphorylation of eIF2α (in words),[2],induced high levels of phosphorylated eIF2α
same,cell surface expression of calreticulin (in words),[3],did not induce any cell surface expression of calreticulin
